{"source": "patent US20160051570A1", "about": "“TREATMENT OF RHEUMATOID ARTHRITIS” (Ganderland and Associates, Inc., priority 2014, published 2016)", "data": [{"test_system": "RA", "assay": "Previous drug treatment of the same RA patients (patient history)", "format": "in vivo, human", "conditions": "drug taken before the composition", "values": [{"compound": "C[C@]12C=CC(=O)C=C1CC[C@@H]1[C@@H]2C(=O)C[C@@]2(C)[C@H]1CC[C@]2(O)C(=O)CO", "note": "[prednisone]", "effect in remission of the disease": "without any real effect"}, {"compound": "ENBREL®", "effect in remission of the disease": "without any real effect"}, {"compound": "CN(Cc1cnc2nc(N)nc(N)c2n1)c1ccc(C(=O)N[C@@H](CCC(=O)O)C(=O)O)cc1", "note": "[methotrexate]", "effect in remission of the disease": "without any real effect"}, {"compound": "Cc1oncc1C(=O)Nc1ccc(C(F)(F)F)cc1", "note": "[arava, leflunomide]", "effect in remission of the disease": "without any real effect"}]}]}
